Data on ten compounds can be found in patent US6573282B1 (priority 1995, dated 2003).

Where “and” joins values, the source holds several entries; their conditions need not be identical. Equal entries are not always repeated. Entries after “also recorded” stand apart in the source; their conditions may differ. Structures can show the parent of a compound that is named as a salt. Where two headings read alike, the source gives them in different places. Some results are limits rather than exact numbers.

By Ki is commonly meant the equilibrium dissociation constant of an inhibitor or competing ligand from its target.

Data set [1] deals with formalin-induced nociception. In words: Formalin-induced flinching (early and late/tonic phase), intrapaw injection. In kind it is in vivo, rat. As to conditions: for Formalin-Induced Flinching (Late Phase) % Maximal Efficacy / Formalin-Induced Flinching (Late Phase) ED50: intrapaw; for A50, antinociception in the second phase of flinching: i.paw injection; for % Antagonism of Late Phase Flinching: 10 minutes prior to formalin, mean ± SEM.

The target of another data set is T1, human μ opiate receptors (Homo sapiens, UniProt P35372).
T1 construct: expressed in transfected cells; host or cells: CHO cells
In words: biochemical. In kind it is binding.

The target in a further data set is human δ receptor (Homo sapiens, UniProt P41143). The experiment in a line: Opiate receptor binding, δ.
The target in another data set is human κ receptor (Homo sapiens, UniProt P41145). In words: biochemical. Type of data set: binding.
For another data set, the system named is catalepsy. In words: Catalepsy: time to dismount from a 4 cm high bar after IM injection. As to conditions: for Time to Dismount from Bar (sec) Before Drug: before drug (baseline); for Time to Dismount from Bar (sec) Before Drug / Time to Dismount from Bar (sec) After Drug Treatment (15 min): individual rats and x ± SE; for catalepsy: unanesthetized rats, IM morphine 3 mg, loperamide 0.5 mg.

Data set [2] deals with yeast-injected left hind paw. The experiment in a line: Randall-Selitto assay, yeast-induced inflammation, paw pressure threshold. In kind it is in vivo, rat. To be noted: four hours after yeast, n=10. The source says:
Air pressure from an air line is admitted through a needle valve to a syringe into a pressure gauge which is connected by a T-tube. The syringe is mounted with a plunger downward, to which is connected a short bullet-shaped wooden peg. The pressure is applied through the wooden tip to the plantar surface of the rat's foot at a specified rate of mm Hg per second. The end point is said to have been reached when the rat starts struggling.
Typically, rats, such as albino rats (120-170 g) of the Charles River Sprague-Dawley strain, or other laboratory strain are used. Hyperalgesia [inflammation] is produced by the injection of 0.1 ml of a 20% suspension of Brewer's yeast into the plantar surface of the rat's hind foot. Thresholds can be determined using a modified apparatus described in Winter and Flataker [(1965) J. Pharm. Exp. Ther. 148:373]. The pain threshold is measured as the pressure in mm Hg required to induce the desired response [a sharp audible squeak and/or struggle] when pressure is applied to the foot. Air pressure from an air line [or other source, such as a vice] is admitted through a needle valve to a 20 ml glass syringe and to a pressure gauge. Pressure is applied to the foot of the rat at a selected rate. The agent compound to be tested is administered typically 2 hours after the yeast injection and threshold response is determined. […] Analgesic activity was determined in terms of the percentage of inhibition of response:
Inhibition (%)=Threshold of the treated group−Threshold of the control group/Threshold of the control group×100
A Randall-Selitto assay [see, Randall et al. (1957) Arch. Int. Pharmacodyn.
Each rat was injected with 100 μl of a 20% yeast solution into the plantar surface of the left hind paw. […] Control rats were treated with 10% DMSO alone [n=20]. The pain thresholds of the inflamed and non-inflamed paws were measured by application of a pressure stimulus to the paw and the paw pressure threshold in gram [g] was recorded.

In data set [3] the test system is carrageenan or yeast inflammatory stimulus. The experiment in a line: Separate tests using carrageenan or yeast as the inflammatory stimulus. In kind it is in vivo.
The test system of data set [4] is acetic acid-induced writhing. As to conditions: mice, intraparenterally (Takasuna et al. 1994); cited from earlier work.
Another data set concerns acute pain models. As to conditions: given systemically; tail clip and hot plate tail withdrawal tests (Stahl et al., Shriver et al.); cited from earlier work.

Chain of human δ receptor (P41143 whole entry): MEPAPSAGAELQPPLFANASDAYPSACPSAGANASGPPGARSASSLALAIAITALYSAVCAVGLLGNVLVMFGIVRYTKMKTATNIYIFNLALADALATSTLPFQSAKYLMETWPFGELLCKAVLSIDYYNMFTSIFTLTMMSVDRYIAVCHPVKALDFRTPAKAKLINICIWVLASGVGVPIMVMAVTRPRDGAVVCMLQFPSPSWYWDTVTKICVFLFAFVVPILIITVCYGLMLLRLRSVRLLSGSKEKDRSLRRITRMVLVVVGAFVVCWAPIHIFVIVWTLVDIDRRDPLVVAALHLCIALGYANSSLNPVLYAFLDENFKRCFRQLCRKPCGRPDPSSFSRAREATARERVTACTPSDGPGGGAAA
Chain of human κ receptor (P41145 whole entry): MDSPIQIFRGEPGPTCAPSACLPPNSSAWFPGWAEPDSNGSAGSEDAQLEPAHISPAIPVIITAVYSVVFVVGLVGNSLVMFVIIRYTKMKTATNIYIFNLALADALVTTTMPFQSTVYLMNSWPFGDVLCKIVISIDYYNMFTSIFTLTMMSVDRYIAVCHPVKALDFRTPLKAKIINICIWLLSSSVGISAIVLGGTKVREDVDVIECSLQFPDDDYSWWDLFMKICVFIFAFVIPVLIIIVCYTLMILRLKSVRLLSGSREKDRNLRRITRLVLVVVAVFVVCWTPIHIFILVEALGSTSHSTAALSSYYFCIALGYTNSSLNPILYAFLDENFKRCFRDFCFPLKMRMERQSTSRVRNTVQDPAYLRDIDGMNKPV
T1 sequence (P35372 whole entry): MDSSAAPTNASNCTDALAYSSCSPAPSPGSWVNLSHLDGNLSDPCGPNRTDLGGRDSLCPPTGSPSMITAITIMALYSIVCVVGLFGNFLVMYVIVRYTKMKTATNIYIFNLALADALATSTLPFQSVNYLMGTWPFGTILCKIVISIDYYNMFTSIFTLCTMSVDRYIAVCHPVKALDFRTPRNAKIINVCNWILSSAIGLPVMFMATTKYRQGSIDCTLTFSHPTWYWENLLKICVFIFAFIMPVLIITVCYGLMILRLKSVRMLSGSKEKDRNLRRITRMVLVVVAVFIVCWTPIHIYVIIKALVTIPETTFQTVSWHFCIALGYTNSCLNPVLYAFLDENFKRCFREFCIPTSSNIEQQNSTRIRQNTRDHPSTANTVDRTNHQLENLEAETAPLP

As to “4-(4-chlorophenyl)-4-hydroxy-N,N-dimethyl-α,α-diphenyl-1-piperidinebutanamide methyl p-toluenesulfonate [Example 19]”, in data set [1], the “Formalin-Induced Flinching (Late Phase) % Maximal Efficacy” value was found to be 69% and the “Formalin-Induced Flinching (Late Phase) ED50” value is recorded as 93 μg i. paw.

The compound `N#CC(CCN1CCC(C(=O)O)(c2ccccc2)CC1)(c1ccccc1)c1ccccc1` [Difenoxin] displayed a Ki on human μ opiate receptors of 13 nM. The compound further returned a Ki on human δ receptor of 56 nM. Also, in [1], the “Formalin-Induced Flinching (Late Phase) % Maximal Efficacy” value worked out at 90% and the “Formalin-Induced Flinching (Late Phase) ED50” value came to 33 μg i. paw.

`CCN(C)C(=O)C(CCN1CCC(O)(c2ccc(Cl)cc2)CC1)(c1ccccc1)c1ccccc1` [Compound 17A]: the Ki at human μ opiate receptors turned out to be 4 nM; on human δ receptor, 123 nM; on human κ receptor it was 1420 nM. Also, the “Formalin-Induced Flinching (Late Phase) % Maximal Efficacy” value in data set [1] amounted to 91%. Further, the “Formalin-Induced Flinching (Late Phase) ED50” value in [1] stood at 4.8 μg i. paw.

For `O=C(N1CCCCC1)C(CCN1CCC(O)(c2ccccc2)CC1)(c1ccccc1)c1ccccc1` [Compound 17C], the Ki at human μ opiate receptors turned out to be 2.5 nM; at human δ receptor it was 15 nM; at human κ receptor it was 4680 nM. In addition, the “Formalin-Induced Flinching (Late Phase) % Maximal Efficacy” value in data set [1] turned out to be 87%. Moreover, in [1], the “Formalin-Induced Flinching (Late Phase) ED50” value was 19 μg i. paw.

On to `O=C(N1CCCC1)C(CCN1CCC(O)(c2ccc(Cl)cc2)CC1)(c1ccccc1)c1ccccc1` [Compound 17B], for which the results for the Ki at human μ opiate receptors, on human δ receptor and at human κ receptor were 2.2 nM, 68 nM and 2230 nM, respectively. The “Formalin-Induced Flinching (Late Phase) % Maximal Efficacy” value in [1] stood at 86%. In addition, the “Formalin-Induced Flinching (Late Phase) ED50” value in data set [1] is recorded as 4.9 μg i. paw.

Turning to `CN1CC[C@]23c4c5ccc(O)c4O[C@H]2[C@@H](O)C=C[C@H]3[C@H]1C5.O=S(=O)(O)O` [morphine, morphine sulfate], the “A50, antinociception in the second phase of flinching” value in [1] came out at 72 µg. Further, in the data set on catalepsy (IM morphine (3 mg) group, sulfate), the “Time to Dismount from Bar (sec) Before Drug” value was 1 sec (3×) and 1 ± 1 sec and 2 sec. Also, the “Time to Dismount from Bar (sec) After Drug Treatment (15 min)” value with catalepsy (IM morphine (3 mg), sulfate) was 37 s and 31 s and 37 ± 11 s and 29 s and 52 s. Besides, in the data set on catalepsy, the catalepsy result was “significantly more cataleptic”.

Regarding `CN(C)C(=O)C(CCN1CCC(O)(c2ccc(Cl)cc2)CC1)(c1ccccc1)c1ccccc1` [Ioperamide], in [1], the “Formalin-Induced Flinching (Late Phase) % Maximal Efficacy” value was found to be 97% and the “Formalin-Induced Flinching (Late Phase) ED50” value is on record as 6 μg i. paw.

With `CCOC(=O)C1(c2ccccc2)CCN(CCC(C#N)(c2ccccc2)c2ccccc2)CC1` [Deiphenoxylate], the inhibitory constant (Ki) on human δ receptor (read-out: In Vitro Binding Affinities Human Opiate Receptors Ki, δ) was 315 nM. For the same compound, in [1], the “Formalin-Induced Flinching (Late Phase) % Maximal Efficacy” value was 61% and the “Formalin-Induced Flinching (Late Phase) ED50” value came out at 158 μg i. paw.

In the case of `CNC(=O)C(CCN1CCC(O)(c2ccc(Cl)cc2)CC1)(c1ccccc1)c1ccccc1.Cl` [Example 18, 4-(p-chlorophenyl)-4-hydroxy-N-methyl-α,α-diphenyl-1-piperidinebutyramide hydrochloride], the results for the Ki at human μ opiate receptors, on human δ receptor and at human κ receptor were 1.1 nM, 200 nM and > 1000 nM, respectively. In data set [1], the “Formalin-Induced Flinching (Late Phase) % Maximal Efficacy” value was 88%. Moreover, the “Formalin-Induced Flinching (Late Phase) ED50” value in data set [1] is recorded as 3.2 μg i. paw.

Turning to `CN(C)C(=O)C(CCN1CCC(O)(c2ccc(Cl)cc2)CC1)(c1ccccc1)c1ccccc1` [loperamide, 4-(p-chlorophenyl)-4-hydroxy-N-N-dimethyl-α,α-diphenyl-1-piperidinebutyramide hydrochloride], the “Paw Pressure Threshold” value in data set [2] (dose 10 μg/100 μl/rat in 10% DMSO) is recorded as 66 ± 15 g; in data set [2] (dose 50 μg/100 μl/rat in 10% DMSO), 124 ± 29 g; in [2] (dose 250 μg/100 μl/rat in 10% DMSO), 153 ± 25 g. For the same compound, in [1] (100 μg i.paw), the “time prior to formalin injection at which administration was still efficacious” value is given as “up to 6 hours”. Moreover, the “antinociception when injected into the paw contralateral to formalin” value in data set [1] (100 μg i.paw, contralateral) is “failed to produce antinociception”. Besides, the “antihyperalgesia when injected ipsilateral to formalin” value in [1] (100 μg i.paw, ipsilateral) is given as “exhibited antihyperalgesia activity”. Further, the “late phase flinching behavior at the highest dose” value in [1] (300 μg i.paw, hydrochloride) was “practically no flinching behavior; also recorded: Full efficacy”. The “% Antagonism of Late Phase Flinching” value in data set [1] (dose 1 μg into the paw) was found to be 20 ± 7%; in data set [1] (dose 3 μg into the paw), 53 ± 10%; in data set [1] (dose 10 μg into the paw) it was 55 ± 15%; in data set [1] (dose 30 μg into the paw), 74 ± 10%; in data set [1] (dose 100 μg into the paw) it was 75 ± 11%; in data set [1] (dose 300 μg into the paw), 97 ± 2%. In addition, the “effects on early phase flinching” value in data set [1] (doses of 0.3, 3, 30 and 300 μg) is given as “no significant effects”. Besides, the “A50, antinociception in the second phase of flinching” value in [1] was found to be 6 µg. Besides, the antihyperalgesic activity result in data set [3] is “demonstrated antihyperalgesic activity”. Also, the acetic acid-induced writhing result in [4] is reported as “suppression”. Also, in the data set on acute pain models, the “analgesic effects in acute pain models” value is “little or no analgesic effects”. Moreover, in the data set with catalepsy (IM loperamide (0.5 mg) group, hydrochloride), the “Time to Dismount from Bar (sec) Before Drug” value is 1 sec (4×) and 1 ± 0 sec. Moreover, in the data set with catalepsy (IM loperamide (0.5 mg), hydrochloride), the “Time to Dismount from Bar (sec) After Drug Treatment (15 min)” value was 1 sec (2×) and 3 sec and 2 sec and 2 ± 1 sec. The catalepsy entry in the data set with catalepsy is listed as “no sign of catalepsy”.
